# Source: PubChem BioAssay AID328 (DTP/NCI, 2004)
# “And” between values parts separate entries of the source, which are not always exact repeats. Identical values can stand only once. Toxic doses and inconclusive results are not listed.
# Test system: BDF1 mice, P388 leukemia ip, median survival T/C
# Test: NCI In Vivo Anticancer Drug Screen. Data for tumor model P388 Leukemia (intraperitoneal) in B6D2F1 (BDF1) mice
# Conditions: endpoint: median survival time, higher = longer survival
# Procedure, shortened: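 In tumour-bearing mice, survival after compound treatment is set against the vehicle group and given as a quotient.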
# [1] = dose: 50.0 mg/kg/injection, schedule: Q01DX009 (ip), vehicle: Klucel (hydroxypropylcellulose) (HPC)
structure (smiles),measurement,setting,value
COc1cc2c(cc1OC)C(OC)N(C)c1c-2ccc2cc3c(cc12)OCO3 (centres undefined),T/C,"dose: 1.1 mg/kg/injection, schedule: Q01DX009 (ip), vehicle: water",118 % of control
same,T/C,"dose: 1.4 mg/kg/injection, schedule: Q04DX003 (ip), vehicle: saline with Tween-80",122 % of control
same,T/C,"dose: 1.46 mg/kg/injection, schedule: Q01DX009 (ip), vehicle: saline with Tween-80",160 % of control
same,T/C,"dose: 2.2 mg/kg/injection, schedule: Q01DX009 (ip), vehicle: saline with Tween-80",151 % of control
same,T/C,"dose: 2.5 mg/kg/injection, schedule: Q01DX009 (ip), vehicle: water",181 % of control
same,T/C,"dose: 3.3 mg/kg/injection, schedule: Q01DX009 (ip), vehicle: saline with Tween-80",169 % of control
same,T/C,"dose: 4.4 mg/kg/injection, schedule: Q01DX009 (ip), vehicle: saline with Tween-80",167 % of control
same,T/C,"dose: 5.0 mg/kg/injection, schedule: Q01DX009 (ip), vehicle: saline with Tween-80",176 % of control
same,T/C,"dose: 5.0 mg/kg/injection, schedule: Q01DX009 (ip), vehicle: water",159 % of control and 190 % of control
same,T/C,"dose: 5.0 mg/kg/injection, schedule: Q04DX003 (ip), vehicle: saline with Tween-80",150 % of control
same,T/C,"dose: 6.6 mg/kg/injection, schedule: Q01DX009 (ip), vehicle: saline with Tween-80",216 % of control
same,T/C,"dose: 10.0 mg/kg/injection, schedule: Q01DX009 (ip), vehicle: saline with Tween-80",191 % of control and 218 % of control
same,T/C,"dose: 10.0 mg/kg/injection, schedule: Q01DX009 (ip), vehicle: saline",170 % of control
same,T/C,"dose: 10.0 mg/kg/injection, schedule: Q01DX009 (ip), vehicle: water",177 % of control and 200 % of control
same,T/C,"dose: 10.0 mg/kg/injection, schedule: Q04DX003 (ip), vehicle: other",163 % of control
same,T/C,"dose: 14.6 mg/kg/injection, schedule: Q04DX003 (ip), vehicle: saline with Tween-80",168 % of control
same,T/C,"dose: 15.0 mg/kg/injection, schedule: Q01DX009 (ip), vehicle: saline with Tween-80",188 % of control
same,T/C,"dose: 15.0 mg/kg/injection, schedule: Q04DX003 (ip), vehicle: other",200 % of control
same,T/C,"dose: 20.0 mg/kg/injection, schedule: Q01DX009 (ip), vehicle: saline with Tween-80",220 % of control and 165 % of control
same,T/C,"dose: 20.0 mg/kg/injection, schedule: Q01DX009 (ip), vehicle: saline",195 % of control
same,T/C,"dose: 20.0 mg/kg/injection, schedule: Q01DX009 (ip), vehicle: water",195 % of control and 220 % of control
same,T/C,"dose: 20.0 mg/kg/injection, schedule: Q04DX003 (ip), vehicle: saline",165 % of control
same,T/C,"dose: 22.0 mg/kg/injection, schedule: Q04DX003 (ip), vehicle: saline with Tween-80",168 % of control
same,T/C,"dose: 33.0 mg/kg/injection, schedule: Q04DX003 (ip), vehicle: saline with Tween-80",263 % of control
same,T/C,"dose: 40.0 mg/kg/injection, schedule: Q01DX009 (ip), vehicle: saline with Tween-80",160 % of control and 175 % of control
same,T/C,"dose: 40.0 mg/kg/injection, schedule: Q01DX009 (ip), vehicle: saline",195 % of control
same,T/C,"dose: 40.0 mg/kg/injection, schedule: Q01DX009 (ip), vehicle: water",186 % of control and 200 % of control
same,T/C,"dose: 40.0 mg/kg/injection, schedule: Q04DX003 (ip), vehicle: saline",170 % of control
same,T/C,[1],205 % of control
same,T/C,"dose: 50.0 mg/kg/injection, schedule: Q04DX002 (ip), vehicle: Klucel (hydroxypropylcellulose) (HPC)",106 % of control
same,T/C,"dose: 50.0 mg/kg/injection, schedule: Q04DX003 (ip), vehicle: saline with Tween-80",231 % of control
same,T/C,"dose: 52.0 mg/kg/injection, schedule: Q01DX009 (ip), vehicle: saline with Tween-80",181 % of control
same,T/C,"dose: 80.0 mg/kg/injection, schedule: Q01DX009 (ip), vehicle: saline",180 % of control
same,T/C,"dose: 80.0 mg/kg/injection, schedule: Q01DX009 (ip), vehicle: water",109 % of control
same,T/C,"dose: 80.0 mg/kg/injection, schedule: Q04DX003 (ip), vehicle: saline",180 % of control
same,T/C,"dose: 100.0 mg/kg/injection, schedule: Q04DX002 (ip), vehicle: Klucel (hydroxypropylcellulose) (HPC)",172 % of control
same,T/C,"dose: 120.0 mg/kg/injection, schedule: Q01DX009 (ip), vehicle: water",113 % of control
same,T/C,"dose: 180.0 mg/kg/injection, schedule: Q01DX009 (ip), vehicle: saline with Tween-80",104 % of control
same,T/C,"dose: 200.0 mg/kg/injection, schedule: Q01DX009 (ip), vehicle: Klucel (hydroxypropylcellulose) (HPC)",200 % of control
same,T/C,"dose: 400.0 mg/kg/injection, schedule: Q04DX002 (ip), vehicle: Klucel (hydroxypropylcellulose) (HPC)",190 % of control
CCC[P+](c1ccccc1)(c1ccccc1)c1ccccc1,T/C,"dose: 2.0 mg/kg/injection, schedule: Q01DX009 (ip), vehicle: saline",111 % of control
same,T/C,"dose: 4.0 mg/kg/injection, schedule: Q01DX009 (ip), vehicle: saline",115 % of control
same,T/C,"dose: 8.0 mg/kg/injection, schedule: Q01DX009 (ip), vehicle: saline",123 % of control
NC(=O)Oc1cc(OC(N)=O)cc(N(CCCl)CCCl)c1,T/C,"dose: 12.5 mg/kg/injection, schedule: Q01DX009 (ip), vehicle: saline with Tween-80",158 % of control
same,T/C,"dose: 25.0 mg/kg/injection, schedule: Q01DX009 (ip), vehicle: saline with Tween-80",181 % of control
same,T/C,"dose: 25.0 mg/kg/injection, schedule: Q04DX003 (ip), vehicle: other",179 % of control
same,T/C,"dose: 50.0 mg/kg/injection, schedule: Q01DX009 (ip), vehicle: saline with Tween-80",168 % of control
same,T/C,"dose: 50.0 mg/kg/injection, schedule: Q04DX003 (ip), vehicle: other",186 % of control
same,T/C,"dose: 100.0 mg/kg/injection, schedule: Q04DX003 (ip), vehicle: other",216 % of control
Nc1ncnc2c1cnn2Cc1ccc(Cl)cc1,T/C,"dose: 12.5 mg/kg/injection, schedule: Q04DX003 (ip), vehicle: Klucel (hydroxypropylcellulose) (HPC)",118 % of control
same,T/C,"dose: 16.5 mg/kg/injection, schedule: Q04DX003 (ip), vehicle: Klucel (hydroxypropylcellulose) (HPC)",91 % of control and 100 % of control
same,T/C,"dose: 25.0 mg/kg/injection, schedule: Q01DX009 (ip), vehicle: Klucel (hydroxypropylcellulose) (HPC)",90 % of control
same,T/C,"dose: 25.0 mg/kg/injection, schedule: Q04DX003 (ip), vehicle: Klucel (hydroxypropylcellulose) (HPC)",91 % of control and 100 % of control
same,T/C,"dose: 37.5 mg/kg/injection, schedule: Q04DX003 (ip), vehicle: Klucel (hydroxypropylcellulose) (HPC)",95 % of control
same,T/C,[1],95 % of control
same,T/C,"dose: 50.0 mg/kg/injection, schedule: Q04DX003 (ip), vehicle: Klucel (hydroxypropylcellulose) (HPC)",104 % of control
Nc1nc(=S)c2[nH]c(N=Nc3ccc(S(=O)(=O)Nc4nccs4)cc3)nc2[nH]1,T/C,"dose: 25.0 mg/kg/injection, schedule: Q01DX001 (ip), vehicle: Klucel (hydroxypropylcellulose) (HPC)",115 % of control
same,T/C,"dose: 100.0 mg/kg/injection, schedule: Q01DX001 (ip), vehicle: Klucel (hydroxypropylcellulose) (HPC)",117 % of control
same,T/C,"dose: 200.0 mg/kg/injection, schedule: Q01DX001 (ip), vehicle: Klucel (hydroxypropylcellulose) (HPC)",120 % of control
C[CH2][Pb]([CH2]C)([CH2]C)[O]C(=O)CBr,T/C,"dose: 2.0 mg/kg/injection, schedule: Q01DX009 (ip), vehicle: other",109 % of control
same,T/C,"dose: 4.5 mg/kg/injection, schedule: Q01DX009 (ip), vehicle: other",101 % of control
same,T/C,"dose: 6.0 mg/kg/injection, schedule: Q01DX009 (ip), vehicle: Klucel (hydroxypropylcellulose) (HPC)",120 % of control
same,T/C,"dose: 12.0 mg/kg/injection, schedule: Q01DX009 (ip), vehicle: Klucel (hydroxypropylcellulose) (HPC)",103 % of control
CC1(C)NC(=O)NC1=O,T/C,"dose: 100.0 mg/kg/injection, schedule: Q01DX001 (ip), vehicle: saline with Tween-80",100 % of control
same,T/C,"dose: 200.0 mg/kg/injection, schedule: Q01DX001 (ip), vehicle: saline with Tween-80",100 % of control
same,T/C,"dose: 400.0 mg/kg/injection, schedule: Q01DX001 (ip), vehicle: saline with Tween-80",100 % of control
CC(C)(S(=O)(=O)Oc1ccccc1)S(=O)(=O)Oc1ccccc1,T/C,"dose: 100.0 mg/kg/injection, schedule: Q04DX003 (ip), vehicle: saline with Tween-80",93 % of control
same,T/C,"dose: 200.0 mg/kg/injection, schedule: Q04DX003 (ip), vehicle: saline with Tween-80",87 % of control
same,T/C,"dose: 400.0 mg/kg/injection, schedule: Q04DX003 (ip), vehicle: saline with Tween-80",92 % of control
